According to patent publication US8648105B2, “Diarylthiohydantoin compounds” (The Regents of the University of California, priority 2006, dated 2014):

Target: T1, AR (Homo sapiens, UniProt P10275)
T1 sequence (P10275 1-920): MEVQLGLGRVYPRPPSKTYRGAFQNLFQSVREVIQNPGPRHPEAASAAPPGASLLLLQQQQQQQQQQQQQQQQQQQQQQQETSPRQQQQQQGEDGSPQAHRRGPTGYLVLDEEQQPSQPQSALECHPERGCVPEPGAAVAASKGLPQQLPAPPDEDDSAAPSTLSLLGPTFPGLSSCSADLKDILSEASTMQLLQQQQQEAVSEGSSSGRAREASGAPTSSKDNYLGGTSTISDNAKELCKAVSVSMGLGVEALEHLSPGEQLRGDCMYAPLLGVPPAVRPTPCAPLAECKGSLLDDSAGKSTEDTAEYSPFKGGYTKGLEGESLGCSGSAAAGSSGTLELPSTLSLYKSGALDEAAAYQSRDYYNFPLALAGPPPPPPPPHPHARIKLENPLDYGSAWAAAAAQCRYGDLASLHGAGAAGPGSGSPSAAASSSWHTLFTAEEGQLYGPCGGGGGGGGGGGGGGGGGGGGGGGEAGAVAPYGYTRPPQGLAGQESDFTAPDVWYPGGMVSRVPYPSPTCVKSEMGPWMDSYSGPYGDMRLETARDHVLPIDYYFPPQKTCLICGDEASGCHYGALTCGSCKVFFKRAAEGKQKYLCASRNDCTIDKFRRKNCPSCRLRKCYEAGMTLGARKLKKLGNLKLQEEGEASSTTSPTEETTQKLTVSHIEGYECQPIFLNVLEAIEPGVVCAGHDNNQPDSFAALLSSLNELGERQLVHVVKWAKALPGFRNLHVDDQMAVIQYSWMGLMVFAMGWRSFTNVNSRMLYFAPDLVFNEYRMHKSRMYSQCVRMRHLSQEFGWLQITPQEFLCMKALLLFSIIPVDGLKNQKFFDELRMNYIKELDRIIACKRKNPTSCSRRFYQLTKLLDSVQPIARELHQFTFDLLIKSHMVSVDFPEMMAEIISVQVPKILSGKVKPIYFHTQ
Type: cell-based
Parameters: Fold induction, AR response reporter
Settings: for rank by relative PSA level, most active to least active: 500 nM; for PSA levels of LN-AR cells: 100, 200, 500, and 1000 nM, FIG. 20
Procedure: It is well established that PSA levels are indicators of AR activities in prostate cancer. […] The LNCaP-AR cells are a line of lymph node carcinoma of prostate cells transduced with a plasmid that makes express androgen receptors. […] After four days incubation, secreted PSA levels were assayed using PSA ELISA kits (American Qualex, San Clemente, Calif.)

| Structure (SMILES) | decrease in PSA level of LNCaP-AR cells (comparison) | rank by relative PSA level, most active to least active | PSA levels of LN-AR cells | PSA level (comparison) (LN/AR cell line, 125 nmol to 1000 nmol) |
| --- | --- | --- | --- | --- |
| CNC(=O)CCc1ccc(N2C(=S)N(c3ccc(C#N)c(C(F)(F)F)c3)C(=O)C23CCC3)cc1 [NC44, 3-{4-[7-(4-Cyano-3-trifluoromethylphenyl)-8-oxo-6-thioxo-5,7-diaza-spiro[3.4]oct-5-yl]-phenyl}-N-methyl-propionamide] | greater decrease in PSA level of LNCaP-AR cells than NC45 and NC49 | NC50>NC48>NC7>NC43>NC44>NC49>NC50>NC45>bicalutamide | – | – |
| N#Cc1ccc(N2C(=O)C3(CCC3)N(c3ccc(CCC(N)=O)cc3)C2=S)cc1C(F)(F)F [NC43, 3-{4-[7-(4-cyano-3-trifluoromethylphenyl)-8-oxo-6-thioxo-5,7-diaza-spiro[3.4]oct-5-yl]-phenyl}-propionamide] | greater decrease in PSA level of LNCaP-AR cells than NC45 and NC49 | NC50>NC48>NC7>NC43>NC44>NC49>NC50>NC45>bicalutamide | – | – |
| CN(C)C(=O)CCCc1ccc(N2C(=S)N(c3ccc(C#N)c(C(F)(F)F)c3)C(=O)C23CCC3)cc1 [NC56, 4-(4-(7-(4-Cyano-3-(trifluoromethyl)phenyl)-8-oxo-6-thioxo-5,7-diazaspiro[3.4]octan-5-yl)phenyl)-N,N-dimethylbutanamide] | – | – | PSA levels of LN-AR cells decreased | – |
| N#Cc1ccc(N2C(=O)C3(CCC3)N(c3ccc(N4CCNCC4)cc3)C2=S)cc1C(F)(F)F [NC49, 4-[8-Oxo-5-(4-piperazin-1-yl-phenyl)-6-thioxo-5,7-diazaspiro[3.4]oct-7-yl]-2-trifluoromethylbenzonitrile] | greater decrease in PSA level than bicalutamide | NC50>NC48>NC7>NC43>NC44>NC49>NC50>NC45>bicalutamide | – | – |
| CNC(=O)c1ccc(N2C(=S)N(c3ccc(C#N)c(C(F)(F)F)c3)C(=O)C23CCCC3)cc1F [NC55, 4-(3-(4-Cyano-3-(trifluoromethyl)phenyl)-4-oxo-2-thioxo-1,3-diazaspiro[4.4]nonan-1-yl)-2-fluoro-N-methylbenzamide] | – | – | PSA levels of LN-AR cells decreased | – |
| N#Cc1ccc(N2C(=O)C3(CCC3)N(c3ccc(CCC(=O)NCCO)cc3)C2=S)cc1C(F)(F)F [NC45, 3-{4-[7-(4-cyano-3-trifluoromethylphenyl)-8-oxo-6-thioxo-5,7-diaza-spiro[3.4]oct-5-yl]-phenyl}-N-(2-hydroxyethyl)-propionamide] | greater decrease in PSA level than bicalutamide | NC50>NC48>NC7>NC43>NC44>NC49>NC50>NC45>bicalutamide | – | – |
| CS(=O)(=O)N1CCN(c2ccc(N3C(=S)N(c4ccc(C#N)c(C(F)(F)F)c4)C(=O)C34CCC4)cc2)CC1 [NC50, 4-{5-[4-(4-methanesulfonylpiperazin-1-yl)-phenyl]-8-oxo-6-thioxo-5,7-diazaspiro[3.4]oct-7-yl}-2-trifluoromethylbenzonitrile] | greater decrease in PSA level of LNCaP-AR cells than NC45 and NC49 | NC50>NC48>NC7>NC43>NC44>NC49>NC50>NC45>bicalutamide | – | – |
| N#CCCCc1ccc(N2C(=S)N(c3ccc(C#N)c(C(F)(F)F)c3)C(=O)C23CCC3)cc1 [NC57, 4-(5-(4-(3-Cyanopropyl)phenyl)-8-oxo-6-thioxo-5,7-diazaspiro[3.4]octan-7-yl)-2-(trifluoromethyl)benzonitrile] | – | – | PSA levels of LN-AR cells decreased | – |
| N#Cc1ccc(N2C(=O)C3(CCC3)N(c3ccc(CCCC(N)=O)cc3)C2=S)cc1C(F)(F)F [NC47, 4-{4-[7-(4-Cyano-3-trifluoromethylphenyl)-8-oxo-6-thioxo-5,7-diaza-spiro[3.4]oct-5-yl]-phenyl}-butyramide] | – | – | – | less than the PSA level upon exposure to NC42 and NC46 |
